According to the NIST ThermoML archive (doi:10.1016/j.fluid.2007.07.065):
± gives the expanded uncertainty stated by the source.

Conditions: Crystal; Heating/Cooling curves

Structure (SMILES)	Normal melting temperature [°C]
CC(=O)O [acetic acid]	16.69 ± 0.1
NC=O [formamide]	2.39 ± 0.1
CCC(=O)O [propanoic acid]	-20.61 ± 0.1
